# Experimental data from the supplement of paper PMC4862054.
# Tested on: BT-549
# Details: 72 h
# How it was run: (§1)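 EC50 was fitted from dose-response curves and censored at the highest concentration tested. To build those curves, breast cancer cell lines (20 µl suspension) were seeded into 384-well plates containing compound at 5 concentrations in 10-fold steps over a compound-specific 10,000-fold range and incubated for 72 h. Readouts were CellTox Green fluorescence (485/520 nm) for cell death and then CellTiter-Glo luminescence for viability, with each plate normalised to 0.1 % DMSO and a positive kill control.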
row,SMILES,"EC50, CellTiter-Glo"
1,O=C(Nc1ccncc1)C(=O)c1cn(Cc2ccc(Cl)cc2)c2ccccc12 [Indibulin],185 nM
2,COCC1(CO)C(=O)C2CCN1CC2 (configuration not stated) [Prima-1 Met],2900 nM
3,S=P(N1CC1)(N1CC1)N1CC1 [Thio-TEPA],8210 nM

# More lines, now with the values ahead:
row,"EC50, CellTiter-Glo",SMILES
1,228 nM,CNC(=O)c1cccc(-c2ccc3c(N4CCOC[C@@H]4C)nc(N4CCOC[C@@H]4C)nc3n2)c1 [AZD2014]
2,3070 nM,O=C(Nc1cccnc1)N1CCC(Cc2cccc(Oc3ccc(C(F)(F)F)cn3)c2)CC1 [PF-3845]

# Tested on: HCC1143
# Details: 72 h
# How it was run: as §1
row,"EC50, CellTiter-Glo",SMILES
1,2640 nM,N#Cc1ccc(COC[C@H]2O[C@@H](n3c(NCc4ccc(Cl)c(Cl)c4)nc4c(N)ncnc43)[C@H](O)[C@@H]2O)cc1
2,366 nM,CNC(=O)c1cccc(-c2ccc3c(N4CCOC[C@@H]4C)nc(N4CCOC[C@@H]4C)nc3n2)c1 [AZD2014]

row,SMILES,"EC50, CellTiter-Glo"
1,O=C(Nc1ccncc1)C(=O)c1cn(Cc2ccc(Cl)cc2)c2ccccc12 [Indibulin],754 nM

# Tested on: DU-4475
# Details: 72 h
# How it was run: as §1
row,SMILES,"EC50, CellTiter-Glo"
1,CCn1c(-c2nonc2N)nc2cnc(Oc3cccc(NC(=O)c4ccc(OCCN5CCOCC5)cc4)c3)cc21,> 10000 nM
2,N#Cc1ccc(COC[C@H]2O[C@@H](n3c(NCc4ccc(Cl)c(Cl)c4)nc4c(N)ncnc43)[C@H](O)[C@@H]2O)cc1,1170 nM
3,CNC(=O)c1cccc(-c2ccc3c(N4CCOC[C@@H]4C)nc(N4CCOC[C@@H]4C)nc3n2)c1 [AZD2014],1400 nM
4,O=C(Nc1ccncc1)C(=O)c1cn(Cc2ccc(Cl)cc2)c2ccccc12 [Indibulin],3810 nM

# Tested on: MDA-MB-453
# Details: 72 h
# How it was run: as §1
row,"EC50, CellTiter-Glo",SMILES
1,195 nM,CNC(=O)c1cccc(-c2ccc3c(N4CCOC[C@@H]4C)nc(N4CCOC[C@@H]4C)nc3n2)c1 [AZD2014]
2,> 10000 nM,CNC(=O)c1ccc(N2C(=S)N(c3ccc(C#N)c(C(F)(F)F)c3)C(=O)C2(C)C)cc1F [Enzalutamide]

row,SMILES,"EC50, CellTiter-Glo"
1,O=C(Nc1ccncc1)C(=O)c1cn(Cc2ccc(Cl)cc2)c2ccccc12 [Indibulin],164 nM

# Tested on: CAL-120
# Details: 72 h
# How it was run: as §1
row,SMILES,"EC50, CellTiter-Glo"
1,CCn1c(-c2nonc2N)nc2cnc(Oc3cccc(NC(=O)c4ccc(OCCN5CCOCC5)cc4)c3)cc21,512 nM
2,CNC(=O)c1cccc(-c2ccc3c(N4CCOC[C@@H]4C)nc(N4CCOC[C@@H]4C)nc3n2)c1 [AZD2014],224 nM
3,O=C(Nc1ccncc1)C(=O)c1cn(Cc2ccc(Cl)cc2)c2ccccc12 [Indibulin],408 nM
4,O=C(Nc1cccnc1)N1CCC(Cc2cccc(Oc3ccc(C(F)(F)F)cn3)c2)CC1 [PF-3845],> 10000 nM
5,COc1cc2/c(=N/c3ccc(Br)cc3F)nc[nH]c2cc1OCC1CCN(C)CC1 [Vandetanib],> 1000 nM

# Tested on: HDQ-P1
# Details: 72 h
# How it was run: as §1
row,SMILES,"EC50, CellTiter-Glo"
1,CCn1c(-c2nonc2N)nc2cnc(Oc3cccc(NC(=O)c4ccc(OCCN5CCOCC5)cc4)c3)cc21,2170 nM
2,N#Cc1ccc(COC[C@H]2O[C@@H](n3c(NCc4ccc(Cl)c(Cl)c4)nc4c(N)ncnc43)[C@H](O)[C@@H]2O)cc1,3550 nM
3,CNC(=O)c1cccc(-c2ccc3c(N4CCOC[C@@H]4C)nc(N4CCOC[C@@H]4C)nc3n2)c1 [AZD2014],120 nM
4,O=C(Nc1ccncc1)C(=O)c1cn(Cc2ccc(Cl)cc2)c2ccccc12 [Indibulin],523 nM

# Tested on: MFM-223
# Details: 72 h
# How it was run: as §1
row,SMILES,"EC50, CellTiter-Glo"
1,N#Cc1ccc(COC[C@H]2O[C@@H](n3c(NCc4ccc(Cl)c(Cl)c4)nc4c(N)ncnc43)[C@H](O)[C@@H]2O)cc1,4530 nM
2,CNC(=O)c1cccc(-c2ccc3c(N4CCOC[C@@H]4C)nc(N4CCOC[C@@H]4C)nc3n2)c1 [AZD2014],123 nM
3,O=C(Nc1ccncc1)C(=O)c1cn(Cc2ccc(Cl)cc2)c2ccccc12 [Indibulin],280 nM
4,CN(C)CCOc1ccc(/C(=C(/CCCl)c2ccccc2)c2ccccc2)cc1 [Toremifene],7340 nM
5,COc1cc2/c(=N/c3ccc(Br)cc3F)nc[nH]c2cc1OCC1CCN(C)CC1 [Vandetanib],370 nM

# Tested on: BT-474
# Details: 72 h
# How it was run: as §1
row,"EC50, CellTiter-Glo",SMILES
1,206 nM,CCn1c(-c2nonc2N)nc2cnc(Oc3cccc(NC(=O)c4ccc(OCCN5CCOCC5)cc4)c3)cc21
2,857 nM,N#Cc1ccc(COC[C@H]2O[C@@H](n3c(NCc4ccc(Cl)c(Cl)c4)nc4c(N)ncnc43)[C@H](O)[C@@H]2O)cc1
3,286 nM,CNC(=O)c1cccc(-c2ccc3c(N4CCOC[C@@H]4C)nc(N4CCOC[C@@H]4C)nc3n2)c1 [AZD2014]
4,3620 nM,CN(C)CCOc1ccc(/C(=C(/CCCl)c2ccccc2)c2ccccc2)cc1 [Toremifene]
5,110 nM,COc1cc2/c(=N/c3ccc(Br)cc3F)nc[nH]c2cc1OCC1CCN(C)CC1 [Vandetanib]

row,SMILES,"EC50, CellTiter-Glo"
1,O=C(Nc1ccncc1)C(=O)c1cn(Cc2ccc(Cl)cc2)c2ccccc12 [Indibulin],282 nM
2,CNC(=O)c1ccc(N2C(=S)N(c3ccc(C#N)c(C(F)(F)F)c3)C(=O)C23CCC3)cc1F [RD162],> 10000 nM

# Tested on: MCF-10A
# Details: 72 h
# How it was run: as §1
row,SMILES,"EC50, CellTiter-Glo"
1,CCn1c(-c2nonc2N)nc2cnc(Oc3cccc(NC(=O)c4ccc(OCCN5CCOCC5)cc4)c3)cc21,37.8 nM
2,N#Cc1ccc(COC[C@H]2O[C@@H](n3c(NCc4ccc(Cl)c(Cl)c4)nc4c(N)ncnc43)[C@H](O)[C@@H]2O)cc1,2640 nM
3,CNC(=O)c1cccc(-c2ccc3c(N4CCOC[C@@H]4C)nc(N4CCOC[C@@H]4C)nc3n2)c1 [AZD2014],493 nM
4,COc1cc2ncnc(Nc3ccc(F)c(Cl)c3)c2cc1OCCCN1CCOCC1 [Gefitinib],84.2 nM
5,CN(C)CCOc1ccc(/C(=C(/CCCl)c2ccccc2)c2ccccc2)cc1 [Toremifene],1710 nM
6,COc1cc2/c(=N/c3ccc(Br)cc3F)nc[nH]c2cc1OCC1CCN(C)CC1 [Vandetanib],150 nM

# Tested on: CAL-85-1
# Details: 72 h
# How it was run: as §1
row,SMILES,"EC50, CellTiter-Glo"
1,CNC(=O)c1cccc(-c2ccc3c(N4CCOC[C@@H]4C)nc(N4CCOC[C@@H]4C)nc3n2)c1 [AZD2014],290 nM
2,COc1cc2ncnc(Nc3ccc(F)c(Cl)c3)c2cc1OCCCN1CCOCC1 [Gefitinib],714 nM
3,O=C(Nc1ccncc1)C(=O)c1cn(Cc2ccc(Cl)cc2)c2ccccc12 [Indibulin],169 nM
4,O=C(Nc1cccnc1)N1CCC(Cc2cccc(Oc3ccc(C(F)(F)F)cn3)c2)CC1 [PF-3845],> 10000 nM

# Tested on: HCC1937
# Details: 72 h
# How it was run: as §1
row,"EC50, CellTiter-Glo",SMILES
1,> 10000 nM,N#Cc1ccc(COC[C@H]2O[C@@H](n3c(NCc4ccc(Cl)c(Cl)c4)nc4c(N)ncnc43)[C@H](O)[C@@H]2O)cc1
2,285 nM,CNC(=O)c1cccc(-c2ccc3c(N4CCOC[C@@H]4C)nc(N4CCOC[C@@H]4C)nc3n2)c1 [AZD2014]
3,> 10000 nM,COc1cc2ncnc(Nc3ccc(F)c(Cl)c3)c2cc1OCCCN1CCOCC1 [Gefitinib]
4,9750 nM,CN(C)CCOc1ccc(/C(=C(/CCCl)c2ccccc2)c2ccccc2)cc1 [Toremifene]

row,SMILES,"EC50, CellTiter-Glo"
1,O=C(Nc1ccncc1)C(=O)c1cn(Cc2ccc(Cl)cc2)c2ccccc12 [Indibulin],245 nM

# Tested on: HCC1599
# Details: 72 h
# How it was run: (§2)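 Each 384-well plate was pre-loaded with compound dissolved in 5 µl medium, received breast cancer cells in 20 µl suspension, and was incubated 72 h. A 2.5 µl addition of CellTiter-Blue for 2 h at 37 °C was followed by a fluorescence read at 560/590 nm. Data were normalised per plate to vehicle and a positive kill control and checked by Z'-factor. EC50 was fitted from the percent-inhibition dose-response curve, censored at the highest concentration, excluding rows with a drug sensitivity score of zero.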
row,"EC50, CellTiter-Blue viability",SMILES
1,1350 nM,N#Cc1ccc(COC[C@H]2O[C@@H](n3c(NCc4ccc(Cl)c(Cl)c4)nc4c(N)ncnc43)[C@H](O)[C@@H]2O)cc1
2,2950 nM,CN(C)c1nc(N(C)C)nc(N(C)C)n1 [Altretamine]
3,517 nM,Nc1cc(C(F)(F)F)c(-c2cc(N3CCOCC3)nc(N3CCOCC3)n2)cn1 [BKM-120]
4,775 nM,COc1cc2ncnc(Nc3ccc(F)c(Cl)c3)c2cc1OCCCN1CCOCC1 [Gefitinib]

# Tested on: HCC1143
# Details: 72 h
# Remark: another data set of the same source
# How it was run: as §2
row,"EC50, CellTiter-Blue viability",SMILES
1,121 nM,Cc1cc(Nc2cc(CN3CCOCC3)c3nc(C)c(Cc4ccc(Cl)cc4F)n3n2)n[nH]1
2,2350 nM,Nc1cc(C(F)(F)F)c(-c2cc(N3CCOCC3)nc(N3CCOCC3)n2)cn1 [BKM-120]
3,> 10000 nM,COc1cc2/c(=N/c3ccc(Br)cc3F)nc[nH]c2cc1OCC1CCN(C)CC1 [Vandetanib]

row,SMILES,"EC50, CellTiter-Blue viability"
1,O=C(Nc1ccncc1)C(=O)c1cn(Cc2ccc(Cl)cc2)c2ccccc12 [Indibulin],46.9 nM

# Tested on: CAL-148
# Details: 72 h
# How it was run: as §2
row,SMILES,"EC50, CellTiter-Blue viability"
1,Nc1cc(C(F)(F)F)c(-c2cc(N3CCOCC3)nc(N3CCOCC3)n2)cn1 [BKM-120],1710 nM
2,COc1cc2ncnc(Nc3ccc(F)c(Cl)c3)c2cc1OCCCN1CCOCC1 [Gefitinib],1440 nM
3,O=C(Nc1ccncc1)C(=O)c1cn(Cc2ccc(Cl)cc2)c2ccccc12 [Indibulin],5000 nM
